Assay results taken from patent US11242344B2, “(4-hydroxypyrrolidin-2-yl)-heterocyclic compounds and methods of use thereof” (Genentech, Inc., priority 2017, dated 2022).

What was measured:
MYC expression = assay: Inhibition of MYC expression in MV-4-11 cells; assay type: cell-based; details: 4 h; for IC50: QuantiGene 2.0, geometric mean; for Maximum Inhibition (%): maximum inhibition of MYC expression
Experimental: Pharmacologic inhibition of MYC is achievable through targeting BET bromodomains through small molecule binder or degrader mechanisms. Such inhibitors may have clinical utility given the widespread pathogenetic role of MYC in cancer. See, e.g., Mertz J, et al., “Targeting MYC dependence in cancer by inhibiting BET bromodomains,” (2011) Proc. Natl. Acad. Sci. USA, Vol. 108 (40), pp. 16669-16674.
To determine the inhibition of MYC expression, MV-4-11 cells (ATCC) were plated at 10,000 cells per well in 96-well plates in RPMI1640 media supplemented with 10% fetal bovine serum and 2 mM L-glutamine. Test compounds diluted in DMSO were transferred to the cell plates, keeping final DMSO concentration consistent at 0.1%, and incubated for 4 h at 37° C. Lysis and analysis for MYC expression were carried out using QuantiGene 2.0 reagents (Affymetrix/eBioscience, probe set cat #SA-50182) and following the vendor's instructions. Luminescence was read using an EnVision plate reader (PerkinElmer) and IC50s generated in Genedata Screener using a 4-parameter non-linear regression fit.
Effective degraders will surpass this and inhibit >95% of MYC, thus following the maximum inhibition within this assay provides valuable SAR. Where more than one measurement was performed for the same assay, the value reported is the geometric mean of all values.

VHL Elongin B/C complex = VHL Elongin B/C complex (Homo sapiens (Human), UniProt P40337); assay: Fluorescence Polarization (FP) VHL Binding Assay; details: VHL binding, FP assay; geometric mean where more than one measurement
In short: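 Readout is polarization of a TAMRA-coupled VHL ligand (1.67 nM final) displaced from the VHL(E55-D213)/Elongin B/C complex (2.64 nM final) after 1 h incubation at room temperature in pH 8.0 Tris buffer with 1% DMSO. Data normalized to no-VHL and compound-free controls, with compound fluorescence subtracted, and fitted by four-parameter curve for IC50.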

[1] = target: NanoLuc VHL fusion protein (Homo sapiens (Human), UniProt P40337); assay: VHL HEK-293 BRET Assay (NanoBRET Target Engagement); assay type: cell-based; details: geometric mean where more than one measurement
In short: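 HEK293 cells stably expressing NanoLuc-VHL, 2 h with compound titration and 1 uM final tracer, then Nano-Glo substrate plus extracellular NanoLuc inhibitor. BRET ratio 610/460 nm, background-corrected with no-tracer wells, normalised to DMSO and 10 uM unlabeled VHL antagonist controls; IC50 by four-parameter fit.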

VHL Elongin B/C complex, sequence (P40337 whole entry, looked up): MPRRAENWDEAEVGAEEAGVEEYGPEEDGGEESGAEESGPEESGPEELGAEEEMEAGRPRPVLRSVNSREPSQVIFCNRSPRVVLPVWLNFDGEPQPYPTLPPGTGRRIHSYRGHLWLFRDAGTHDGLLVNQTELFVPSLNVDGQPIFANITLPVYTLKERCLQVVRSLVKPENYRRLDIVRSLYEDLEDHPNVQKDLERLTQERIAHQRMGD
VHL Elongin B/C complex, sequence (Q15370 whole entry partner, looked up): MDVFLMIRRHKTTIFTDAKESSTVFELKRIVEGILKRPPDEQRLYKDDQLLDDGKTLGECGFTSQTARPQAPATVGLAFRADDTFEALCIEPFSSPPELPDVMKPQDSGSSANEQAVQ
VHL Elongin B/C complex, sequence (Q15369 whole entry partner, looked up): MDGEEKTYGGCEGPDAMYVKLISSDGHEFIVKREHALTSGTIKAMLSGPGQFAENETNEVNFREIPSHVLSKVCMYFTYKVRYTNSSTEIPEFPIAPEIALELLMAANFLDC
NanoLuc VHL fusion protein, sequence (P40337 whole entry, looked up, the tested form may be a part): as the sequence (P40337 whole entry, looked up) above
NanoLuc VHL fusion protein, sequence (Q15370 whole entry partner, looked up, the tested form may be a part): as the sequence (Q15370 whole entry partner, looked up) above
NanoLuc VHL fusion protein, sequence (Q15369 whole entry partner, looked up, the tested form may be a part): as the sequence (Q15369 whole entry partner, looked up) above

Row | IC50 (MYC expression) [nM] | IC50 (VHL Elongin B/C complex) [µM] | IC50 [1] [µM] | Structure (SMILES) | Maximum Inhibition (%) (MYC expression)
1 | 17.4 | 16.9 |  | Cc1ncsc1-c1ccc([C@]2(C)NC(C3C[C@@H](O)CN3C(=O)C(c3cc(OCCCCCNC(=O)c4cc5c(cc4CS(C)(=O)=O)-c4cn(C)c(=O)c6[nH]cc(c46)CN5c4ncc(F)cc4F)no3)C(C)C)=NC2=O)cc1 (single isomer, unassigned) [Example 1001.1] | 82.3
2 | 1.71 | 0.795 |  | Cc1ncsc1-c1ccc([C@]2(C)NC(C3C[C@@H](O)CN3C(=O)C(c3cc(OCCCCCNC(=O)c4cc5c(cc4CS(C)(=O)=O)-c4cn(C)c(=O)c6[nH]cc(c46)CN5c4ncc(F)cc4F)no3)C(C)C)=NC2=O)cc1 (single isomer, unassigned) [Example 1001.2] | 98.4
3 | 27.4 | > 100 |  | Cc1ncsc1-c1ccc([C@]2(C)NC(C3C[C@@H](O)CN3C(=O)C(c3cc(OCCCCCNC(=O)c4cc5c(cc4CS(C)(=O)=O)-c4cn(C)c(=O)c6[nH]cc(c46)CN5c4ncc(F)cc4F)no3)C(C)C)=NC2=O)cc1 (single isomer, unassigned) [Example 1001.3] | 79.2
4 |  | 255 | 64.6 | Cc1ncsc1-c1ccc([C@]2(C)NC(C3C[C@@H](O)CN3C(=O)[C@@H](NC(=O)CCCCCCCCCCNC(=O)c3cc4c(cc3CS(C)(=O)=O)-c3cn(C)c(=O)c5[nH]cc(c35)CN4c3ncc(F)cc3F)C(C)(C)C)=NC2=O)cc1 (single isomer, unassigned) [Example 1005.1] | 
